For orientation: IC50 means the midpoint of a concentration-inhibition curve.

Consider 1 molecule from patent US10889606B2, “Biflavone-iron complex, preparation method and application thereof” (NANJING FORESTRY UNIVERSITY, priority 2017, dated 2021).

A short description of assay [1]: ABTS method, ABTS^+. free radical scavenging. The following applies: read-out: IC50 for scavenging ABTS^+. free radicals, 25° C., 5 min, 730 nm.
Method: The free radical scavenging abilities of the Ame and the Ame-Fe complex were studied by pyrogallol auto-oxidation method and ABTS method with the following steps:
Within a certain range, the scavenging rate is linear with the concentration. The curve of the scavenging rate and the concentration (c) is plotted in the present invention to obtain a corresponding linear equation, and the maximum half-inhibitory concentration (IC50 value) is calculated.
The nature of assay [2]: Pyrogallol auto-oxidation method, O2^−. free radical scavenging. Conditions: Tris-HCl pH 8.20, 25° C., 322 nm, read-out: IC50 to scavenge O2^−. free radical. On the procedure:
(1) Pyrogallol Auto-Oxidation Method
Determination of auto-oxidation rate V0 of pyrogallol: 2 mL Tris-HCl buffer (pH=8.20) was added to a 10 mL sample tube at 25° C., 100 μL, DMSO was added as a control, after adding 0.8 mL distilled water, 0.2 mL pyrogallol solution having a concentration of 2 mmol·L^−1 was added, the mixture was poured into a cuvette after mixing uniformly, the absorbance at 322 nm was measured with pure water as a blank, the A value was recorded every 10 s for a total of 4 min, linear regression was performed with t as the abscissa, and A as the ordinate, straight line slope thereof is V0, and the measurement was performed for three times to obtain an average value.
The free radical scavenging rate was calculated according to Formula 3. SR(%)=(1−v1/v0)×[…] (Formula 3)

Another assay concerns herring sperm DNA (fDNA). The assay is described as follows: Interaction with herring sperm DNA (fDNA) by UV-vis spectroscopy, fluorescence spectroscopy and viscosity method. In kind it is binding. Conditions: UV-vis, fluorescence (fDNA-EB system), viscosity. From the text:
UV-vis spectroscopy, fluorescence spectroscopy and viscosity method are used to study the interaction between the Ame/Ame-Fe complex and herring sperm DNA (fDNA) to further reveal the mechanism of antitumor activity, the obtained spectra are shown in FIGS. 7-11. […] Thereby, it can be speculated that the mechanism of antitumor activity of the Ame and its complex may be that Ame or the complex thereof enters the interior of the cell and intercalates with the DNA strand to cause apoptosis. Since the interaction of the complex with DNA is stronger than of the Ame, the antitumor activity thereof is also stronger than of the Ame.

On to `O=c1cc(-c2ccc(O)c(-c3c(O)cc(O)c4c(=O)cc(-c5ccc(O)cc5)oc34)c2)oc2cc(O)cc(O)c12` [Ame, amentoflavone], for which the IC50 in assay [1] stood at 20.7 µM; in assay [2], 23.3 µM. In addition, the “manner of interaction with fDNA” value in the assay on herring sperm DNA (fDNA) is “in the intercalation manner”.
